From PubChem BioAssay (NCI)
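GI50 marks 50% less growth. Definition used: TGI = concentration required for complete inhibition of growth.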

How the values were obtained:
Assay in all cases: growth of human tumour cells (NCI), 384-well format
HL-60(TB) leukemia = tested on: HL-60(TB) leukemia
ACHN renal = tested on: ACHN renal
LOX IMVI melanoma = tested on: LOX IMVI melanoma
IGROV1 ovarian = tested on: IGROV1 ovarian
HS 578T breast = tested on: HS 578T breast
HCT-116 colon = tested on: HCT-116 colon
UACC-62 melanoma = tested on: UACC-62 melanoma
SF-539 CNS = tested on: SF-539 CNS
NCI-H23 lung = tested on: NCI-H23 lung
SF-268 CNS = tested on: SF-268 CNS
KM12 colon = tested on: KM12 colon
HCT-15 colon = tested on: HCT-15 colon
OVCAR-5 ovarian = tested on: OVCAR-5 ovarian
MCF7 breast = tested on: MCF7 breast
786-0 renal = tested on: 786-0 renal
UO-31 renal = tested on: UO-31 renal
SR leukemia = tested on: SR leukemia
U251 glioblastoma = tested on: U251 glioblastoma
EKVX NSCLC = tested on: EKVX NSCLC
SN12C renal = tested on: SN12C renal
SF-295 CNS = tested on: SF-295 CNS
MDA-MB-435 melanoma = tested on: MDA-MB-435 melanoma
TK-10 renal = tested on: TK-10 renal
HOP-92 NSCLC = tested on: HOP-92 NSCLC
NCI-H322M lung = tested on: NCI-H322M lung
RXF 393 renal = tested on: RXF 393 renal
SK-MEL-28 melanoma = tested on: SK-MEL-28 melanoma
DU-145 prostate = tested on: DU-145 prostate
OVCAR-3 ovarian = tested on: OVCAR-3 ovarian
M14 melanoma = tested on: M14 melanoma
SNB-75 CNS = tested on: SNB-75 CNS
A498 renal = tested on: A498 renal
OVCAR-8 ovarian = tested on: OVCAR-8 ovarian
HOP-62 NSCLC = tested on: HOP-62 NSCLC
BT-549 breast = tested on: BT-549 breast
NCI-H522 lung = tested on: NCI-H522 lung
RPMI-8226 leukemia = tested on: RPMI-8226 leukemia
MDA-MB-468 breast = tested on: MDA-MB-468 breast
SK-MEL-5 melanoma = tested on: SK-MEL-5 melanoma
T-47D breast = tested on: T-47D breast
NCI-H226 lung = tested on: NCI-H226 lung
CCRF-CEM leukemia = tested on: CCRF-CEM leukemia
OVCAR-4 ovarian = tested on: OVCAR-4 ovarian
SK-OV-3 ovarian = tested on: SK-OV-3 ovarian
MALME-3M melanoma = tested on: MALME-3M melanoma
SNB-19 CNS = tested on: SNB-19 CNS
UACC-257 melanoma = tested on: UACC-257 melanoma
NCI/ADR-RES ovarian = tested on: NCI/ADR-RES ovarian
MOLT-4 leukemia = tested on: MOLT-4 leukemia
CAKI-1 renal = tested on: CAKI-1 renal
A549 NSCLC = tested on: A549 NSCLC
SW-620 colon = tested on: SW-620 colon
NCI-H460 NSCLC = tested on: NCI-H460 NSCLC
PC-3 prostate = tested on: PC-3 prostate
K-562 leukemia = tested on: K-562 leukemia
HT29 colon = tested on: HT29 colon
HCC-2998 colon = tested on: HCC-2998 colon
MDA-MB-231 breast = tested on: MDA-MB-231 breast
COLO 205 colon = tested on: COLO 205 colon

## COc1ccc(CN2C3CC2CN(c2ccc(-c4cc(OCC(C)(C)O)cn5ncc(C#N)c45)cn2)C3)cn1
HL-60(TB) leukemia
  GI50: 4.36 µM
  TGI: 11.5 µM
ACHN renal
  GI50: 25.4 µM
  TGI: > 100 µM
LOX IMVI melanoma
  GI50: 50.8 µM
  TGI: > 100 µM
IGROV1 ovarian
  GI50: 7.33 µM
  TGI: > 60 µM
HS 578T breast
  GI50: 6.92 µM
  TGI: > 50.1 µM
HCT-116 colon
  GI50: 24.2 µM
  TGI: > 100 µM
UACC-62 melanoma
  GI50: 98.7 µM
  TGI: > 100 µM
SF-539 CNS
  GI50: 2.08 µM
  TGI: 6.86 µM
NCI-H23 lung
  GI50: 8.4 µM
  TGI: 27.8 µM
SF-268 CNS
  GI50: > 26.8 µM
  TGI: > 100 µM
KM12 colon
  GI50: > 100 µM
  TGI: > 100 µM
HCT-15 colon
  GI50: 9.55 µM
  TGI: > 31.6 µM
OVCAR-5 ovarian
  GI50: > 100 µM
  TGI: > 100 µM
MCF7 breast
  GI50: > 31.6 µM
  TGI: > 31.6 µM
786-0 renal
  GI50: 57.3 µM
  TGI: > 100 µM
UO-31 renal
  GI50: > 100 µM
  TGI: > 100 µM
SR leukemia
  GI50: 1.64 µM
  TGI: 3.24 µM
U251 glioblastoma
  GI50: > 31.6 µM
  TGI: > 31.6 µM
EKVX NSCLC
  GI50: > 31.6 µM
  TGI: > 31.6 µM
SN12C renal
  GI50: 2.44 µM
  TGI: > 45.8 µM
SF-295 CNS
  GI50: 5.36 µM
  TGI: 9.56 µM
MDA-MB-435 melanoma
  GI50: > 100 µM
  TGI: > 100 µM
TK-10 renal
  GI50: > 31.6 µM
  TGI: > 31.6 µM
HOP-92 NSCLC
  GI50: 2.92 µM
  TGI: 38.1 µM
NCI-H322M lung
  GI50: > 74 µM
  TGI: > 100 µM
RXF 393 renal
  GI50: 4.29 µM
  TGI: 7.91 µM
SK-MEL-28 melanoma
  GI50: > 100 µM
  TGI: > 100 µM
DU-145 prostate
  GI50: 28.3 µM
  TGI: > 100 µM
OVCAR-3 ovarian
  GI50: > 28.5 µM
  TGI: > 100 µM
M14 melanoma
  GI50: > 82 µM
  TGI: > 100 µM
SNB-75 CNS
  GI50: 1.85 µM
  TGI: 7.29 µM
A498 renal
  GI50: > 38.3 µM
  TGI: > 100 µM
OVCAR-8 ovarian
  GI50: 22.3 µM
  TGI: > 31.6 µM
HOP-62 NSCLC
  GI50: 8.51 µM
  TGI: > 31.6 µM
BT-549 breast
  GI50: 1.87 µM
  TGI: 7.68 µM
NCI-H522 lung
  GI50: 7.9 µM
  TGI: > 31.6 µM
RPMI-8226 leukemia
  GI50: > 28.8 µM
  TGI: > 31.6 µM
MDA-MB-468 breast
  GI50: 5.75 µM
  TGI: 9.04 µM
SK-MEL-5 melanoma
  GI50: > 31.6 µM
  TGI: > 31.6 µM
T-47D breast
  GI50: > 31.6 µM
  TGI: > 31.6 µM
NCI-H226 lung
  GI50: 2.94 µM
  TGI: 15.4 µM
CCRF-CEM leukemia
  GI50: 1.99 µM
  TGI: 3.76 µM
OVCAR-4 ovarian
  GI50: 5.26 µM
  TGI: > 100 µM
SK-OV-3 ovarian
  GI50: 24.3 µM
  TGI: > 31.6 µM
MALME-3M melanoma
  GI50: > 28.9 µM
  TGI: > 100 µM
SNB-19 CNS
  GI50: > 100 µM
  TGI: > 100 µM
UACC-257 melanoma
  GI50: > 31.6 µM
  TGI: > 31.6 µM
NCI/ADR-RES ovarian
  GI50: 21.4 µM
  TGI: > 100 µM
MOLT-4 leukemia
  GI50: 1.58 µM
  TGI: 3.13 µM
CAKI-1 renal
  GI50: 5.02 µM
  TGI: > 100 µM
A549 NSCLC
  GI50: 7.53 µM
  TGI: > 31.6 µM
SW-620 colon
  GI50: 4.99 µM
  TGI: > 100 µM
NCI-H460 NSCLC
  GI50: 5.11 µM
  TGI: > 100 µM
PC-3 prostate
  GI50: > 100 µM
  TGI: > 100 µM

## Cn1cc(C2=C(c3cn(C4CCN(Cc5ccccn5)CC4)c4ccccc34)C(=O)NC2=O)c2ccccc21
HL-60(TB) leukemia
  GI50: 0.713 µM
  TGI: 2.54 µM
ACHN renal
  GI50: 8.73 µM
  TGI: > 100 µM
LOX IMVI melanoma
  GI50: 3.1 µM
  TGI: > 100 µM
IGROV1 ovarian
  GI50: 3.57 µM
  TGI: > 100 µM
HS 578T breast
  GI50: 2.22 µM
  TGI: 5.08 µM
HCT-116 colon
  GI50: 0.645 µM
  TGI: > 100 µM
SF-539 CNS
  GI50: 1.2 µM
  TGI: > 100 µM
NCI-H23 lung
  GI50: 5.28 µM
  TGI: > 100 µM
SF-268 CNS
  GI50: 3 µM
  TGI: 7.84 µM
KM12 colon
  GI50: 3.93 µM
  TGI: > 100 µM
HCT-15 colon
  GI50: 0.623 µM
  TGI: > 100 µM
OVCAR-5 ovarian
  GI50: > 100 µM
  TGI: > 100 µM
MCF7 breast
  GI50: 2.98 µM
  TGI: > 100 µM
786-0 renal
  GI50: 3.31 µM
  TGI: > 100 µM
K-562 leukemia
  GI50: 0.454 µM
  TGI: 1.58 µM
UO-31 renal
  GI50: 1.11 µM
  TGI: > 100 µM
HT29 colon
  GI50: 3.29 µM
  TGI: > 100 µM
HCC-2998 colon
  GI50: 1.5 µM
  TGI: 12.4 µM
EKVX NSCLC
  GI50: 0.917 µM
  TGI: > 100 µM
SN12C renal
  GI50: 1.26 µM
  TGI: > 100 µM
SF-295 CNS
  GI50: 4.48 µM
  TGI: > 100 µM
MDA-MB-435 melanoma
  GI50: 0.421 µM
  TGI: 39.4 µM
TK-10 renal
  GI50: 2.7 µM
  TGI: > 100 µM
HOP-92 NSCLC
  GI50: 4.24 µM
  TGI: > 100 µM
NCI-H322M lung
  GI50: 5.75 µM
  TGI: > 100 µM
RXF 393 renal
  GI50: 2.06 µM
  TGI: 4.85 µM
SK-MEL-28 melanoma
  GI50: 2.89 µM
  TGI: > 100 µM
DU-145 prostate
  GI50: 2.65 µM
  TGI: > 100 µM
OVCAR-3 ovarian
  GI50: 0.5 µM
  TGI: 3.36 µM
M14 melanoma
  GI50: 2.94 µM
  TGI: 9.21 µM
SNB-75 CNS
  GI50: 1.41 µM
  TGI: 7.12 µM
A498 renal
  GI50: 0.718 µM
  TGI: 7.71 µM
OVCAR-8 ovarian
  GI50: 6.7 µM
  TGI: > 100 µM
HOP-62 NSCLC
  GI50: 3.22 µM
  TGI: > 100 µM
BT-549 breast
  GI50: 1.6 µM
  TGI: > 100 µM
MDA-MB-468 breast
  GI50: 0.274 µM
  TGI: 0.593 µM
SK-MEL-5 melanoma
  GI50: 0.372 µM
  TGI: 95.5 µM
MDA-MB-231 breast
  GI50: 4.21 µM
  TGI: > 100 µM
NCI-H226 lung
  GI50: 3.31 µM
  TGI: > 100 µM
CCRF-CEM leukemia
  GI50: 0.403 µM
  TGI: 1.24 µM
OVCAR-4 ovarian
  GI50: 3.33 µM
  TGI: > 100 µM
SK-OV-3 ovarian
  GI50: 2.52 µM
  TGI: > 100 µM
MALME-3M melanoma
  GI50: 2.84 µM
  TGI: 7.71 µM
SNB-19 CNS
  GI50: 2.61 µM
  TGI: > 100 µM
UACC-257 melanoma
  GI50: > 100 µM
  TGI: > 100 µM
NCI/ADR-RES ovarian
  GI50: 3.33 µM
  TGI: > 100 µM
MOLT-4 leukemia
  GI50: 1.9 µM
  TGI: 3.35 µM
CAKI-1 renal
  GI50: 3.99 µM
  TGI: > 100 µM
A549 NSCLC
  GI50: 5.18 µM
  TGI: > 100 µM
COLO 205 colon
  GI50: 4.14 µM
  TGI: > 100 µM
NCI-H460 NSCLC
  GI50: 0.344 µM
  TGI: 84 µM
PC-3 prostate
  GI50: 2.98 µM
  TGI: > 100 µM
